# Measurements as given in patent publication US20070276011A1, “Plasminogen Activator Inhibitor-1 Inhibitor” (priority 2003, published 2007).
# Target: recombinant human PAI-1 (Homo sapiens, UniProt P05121)
# Assay: PAI-1 inhibitory activity, Test Method A (tPA fluorogenic substrate, Tris buffer pH8.0, 37 C)
# Type: biochemical
# Settings: 25 μM test compound; Test Method A
# recombinant human PAI-1, sequence (P05121 24-402): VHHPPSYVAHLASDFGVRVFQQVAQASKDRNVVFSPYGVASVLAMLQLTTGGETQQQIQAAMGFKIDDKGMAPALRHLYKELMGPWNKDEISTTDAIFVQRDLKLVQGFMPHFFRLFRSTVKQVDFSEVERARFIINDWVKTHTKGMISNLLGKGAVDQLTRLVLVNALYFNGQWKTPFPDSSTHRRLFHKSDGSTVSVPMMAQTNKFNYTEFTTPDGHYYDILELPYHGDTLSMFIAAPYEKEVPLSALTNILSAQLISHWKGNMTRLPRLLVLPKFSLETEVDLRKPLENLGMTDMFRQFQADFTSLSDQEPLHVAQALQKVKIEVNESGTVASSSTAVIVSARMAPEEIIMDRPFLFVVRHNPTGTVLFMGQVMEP
row,SMILES,Inhibitory Ratio at 25 μM (%)
1,O=C(Nc1ccc(O)nc1)c1cc(C=C2SC(=O)N(Cc3ccc(Cl)c(Cl)c3)C2=O)ccc1O [compound 408],>99
2,"COc1ccc(NC(=O)c2cc(C=C3SC(=O)N(Cc4cc(C)cc(C)c4)C3=O)ccc2O)cc1OC [compound 393, 5-[4-Hydroxy-3-(3,4-dimethoxyphenylcarbamoyl)benzylidene]-3-(3,5-dimethylbenzyl)thiazolidine-2,4-dione]",>99
3,COc1ccc(NC(=O)c2cc(C=C3SC(=O)N(Cc4ccc(Cl)c(Cl)c4)C3=O)cc(OC)c2O)cc1C(F)(F)F [compound 360],>99
4,CC(C)C1=NN(c2cc(Cl)cc(Cl)c2)C(=O)C1=Cc1cc(Br)cc(O)c1O [compound 529],>99
5,COc1cc(Br)cc(C=C2C(=O)N(c3cc(Cl)cc(Cl)c3)N=C2C(C)C)c1O [compound 528],>99
6,"O=C1C(=Cc2cc(Br)ccc2O)C(c2ccc(O)cc2)=NN1c1ccc(Cl)cc1 [compound 520, 4-(2-Hydroxy-5-bromobenzylidene)-1-(4-chlorophenyl)-3-(4-hydroxyphenyl)-2-pyrazolin-5-one]",>99
7,"COc1cc(NC(=O)c2cc(C=C3SC(=O)N(Cc4ccc(Cl)c(Cl)c4)C3=O)ccc2O)cc(OC)c1OC [compound 433, 5-[4-hydroxy-3-(3,4,5-trimethoxyphenylcarbamoyl)benzylidene]-3-(3,4-dichlorobenzyl)thiazolidine-2,4-dione]",>99
8,"O=C(CCc1ccccc1)Nc1ccc(CN2C(=O)SC(=Cc3cccc(O)c3O)C2=O)cc1 [compound 314, 5-(2,3-Dihydroxybenzylidene)-3-[4-(3-phenylpropionylamino)benzyl]-thiazolidine-2,4-dione]",>99
9,"CC(C)C1=NN(c2ccc(Cl)c(Cl)c2)C(=O)C1=Cc1cc(Oc2ccc(Br)cc2)ccc1[N+](=O)[O-] [Compound No. 562, 4-[2-Nitro-5-(4-bromophenoxy)benzylidene]-1-(3,4-dichlorophenyl)-3-isopropyl-2-pyrazolin-5-one]",>99
10,COc1ccc(NC(=O)c2cccc(C=C3SC(=O)N(Cc4ccc(Cl)c(Cl)c4)C3=O)c2)cc1OC [compound 357],82
11,O=C(Nc1cc(C=C2SC(=O)N(Cc3ccc(Cl)c(Cl)c3)C2=O)ccc1O)c1ccc(O)cc1 [compound 382],97
12,"COC(=O)c1ccc(NC(=O)c2cc(C=C3SC(=O)N(Cc4ccc(Cl)c(Cl)c4)C3=O)ccc2O)cc1 [compound 416, 5-{4-hydroxy-3-[4-(methoxycarbonyl)phenylcarbamoyl]benzylidene}-3-(3,4-dichlorobenzyl)thiazolidine-2,4-dione]",73
13,COc1ccc(C=C2SC(=O)N(Cc3ccc(Cl)c(Cl)c3)C2=O)cc1O [compound 323],21
14,CC(C)c1ccc(NC(=O)c2cc(C=C3SC(=O)N(Cc4ccc(Cl)c(Cl)c4)C3=O)ccc2O)c(Br)c1 [compound 472],94
15,"O=C1C(=Cc2ccc(O)c(O)c2)SC(=S)N1Cc1ccc(C=Cc2ccccc2)cc1 [compound 306, 5-(3,4-Dihydroxybenzylidene)-3-(4-styrylbenzyl)rhodanine]",>99

# Same assay, conditions: test compound 25 μM; Test Method A
row,SMILES,Inhibitory Ratio at 25 μM (%)
1,CC(C)(C)c1cc(CN2C(=O)SC(=Cc3ccc(O)c(O)c3)C2=O)cc(C(C)(C)C)c1O [compound 14],>99
2,"COC(=O)c1cccc(N2N=C(C(C)C)C(=Cc3cc(Br)cc(Br)c3O)C2=O)c1 [compound 108, 4-(3,5-Dibromo-2-hydroxybenzylidene)-1-[3-(Methoxycarbonyl)phenyl]-3-isopropyl-2-pyrazolin-5-one]",27
3,"CCOC(=O)c1cc(C=C2SC(=O)N(Cc3cc(C(F)(F)F)cc(C(F)(F)F)c3)C2=O)ccc1O [compound 28, 5-(3-Ethoxycarbonyl-4-hydroxybenzylidene)-3-[3,5-bis(trifluoromethyl)-benzyl]thiazolidine-2,4-dione]",62
4,"O=C1SC(=Cc2cccc(O)c2O)C(=O)N1Cc1ccc(Cl)c(Cl)c1 [compound 8, 5-(2,3-Dihydroxybenzylidene)-3-(3,4-dichlorobenzyl)thiazolidine-2,4-dione]",>99
5,O=C(O)c1cccc(N2N=C(C(F)(F)F)C(=Cc3ccc(-c4cc(Cl)cc(Cl)c4)o3)C2=O)c1 [compound 176],65
6,"O=C(CN1C(=O)SC(=Cc2ccc(O)c(O)c2)C1=O)c1ccc(Cl)cc1Cl [compound 92, 5-(3,4-Dihydroxybenzylidene)-3-[(2,4-dichlorobenzoyl)-methyl]thiazolidine-2,4-dione]",>99
7,O=C(O)c1cccc(N2N=C(C(F)(F)F)C(=Cc3ccc(-c4cc(Cl)cc(Cl)c4)o3)C2=O)c1 [compound 218],95
8,"CC(C)(C)C1=NN(c2cc(Cl)cc(Cl)c2)C(=O)C1=Cc1ccc(O)c(O)c1 [compound 138, 4-(3,4-Dihydroxybenzylidene)-1-(3,5-dichlorophenyl)-3-(tert-butyl)-2-pyrazolin-5-one]",>99
9,"CC(=O)Nc1ccc(C=C2SC(=O)N(Cc3ccc(Cl)c(Cl)c3)C2=O)cc1 [compound 79, 5-[4-(acetamido)benzylidene]-3-(3,4-dichlorobenzyl)-thiazolidine-2,4-dione]",65
10,Nc1ccc(C=C2SC(=O)N(Cc3ccc(Cl)c(Cl)c3)C2=O)cc1O [compound 88],65
11,O=C1SC(=Cc2ccc(O)c(O)c2)C(=O)N1Cc1cccc(Br)c1 [compound 35],>99
12,"CC1=NN(c2cc(Cl)cc(Cl)c2)C(=O)C1=Cc1ccc(O)c(O)c1 [compound 112, 4-(3,4-Dihydroxybenzylidene)-1-(3,5-dichlorophenyl)-3-methyl-2-pyrazolin-5-one]",>99
13,COC(=O)c1cccc(N2N=C(C(C)(C)C)C(=Cc3ccc(Cl)c(Cl)c3)C2=O)c1 [compound 197],32
14,COC(=O)c1cccc(N2N=C(c3ccccc3)C(=Cc3ccc(-c4cc(Cl)cc(Cl)c4)o3)C2=O)c1 [compound 180],90
15,CC(C)C1=NN(c2cc(Cl)cc(Cl)c2)C(=O)C1=Cc1ccc(Br)cc1 [compound 207],46
16,COC(=O)c1cccc(N2N=C(C(F)(F)F)C(=Cc3ccc(-c4cc(Cl)cc(Cl)c4)s3)C2=O)c1 [compound 181],23
17,O=C1SC(=Cc2cc(O)c(O)c(O)c2)C(=O)N1Cc1cc(Cl)cc(Cl)c1 [compound 54],>99
18,O=C1SC(=Cc2ccc(O)c(O)c2)C(=O)N1Cc1cccc(Cl)c1Cl [compound 19],>99
19,"O=C1SC(=Cc2cccc(O)c2O)C(=O)N1Cc1cccc(Oc2ccccc2)c1 [compound 16, 5-(2,3-Dihydroxybenzylidene)-3-(3-phenoxybenzyl)thiazolidine-2,4-dione]",>99
20,"COC(=O)c1cccc(N2N=C(c3ccccc3)C(=Cc3ccc(O)c(O)c3)C2=O)c1 [compound 154, 4-(3,4-Dihydroxybenzylidene)-1-[3-(methoxycarbonyl)phenyl]-3-phenyl-2-pyrazolin-5-one]",>99
